Experimental data taken from US11147884B2, “Inhibitors of NHE-mediated antiport” (Ardelyx, Inc., priority 2017, dated 2021).

Assays:
[1] = system: human ileum monolayer culture; experiment: Transepithelial electrical resistance (TEER) in human ileum organoid monolayer cultures; format: cell-based; settings: for TEER compared with control: 3 μM, vs DMSO (FIG. 1D)
Experimental: Each human ileum monolayer culture well was washed twice with fresh SBM on the apical side on day 6 before compound dosing. All compound stocks were 10 mM dissolved in DMSO. Each compound stock was individually mixed with fresh SBM to reach final compound concentration and dosed only on the apical side of the monolayer (total volume 200 μl). DMSO at the equivalent concentration was used as the vehicle control. Duplicate wells were dosed for each compound. Transepithelial electrical resistance (TEER) was used as a quantitative technique to measure of tight junction permeability. TEER values were recorded using a volt/ohm meter (MERS00002, Millipore) before and after dosing for all wells. Each of the duplicate TEER values following treatment were corrected for the individual well baseline TEER. Baseline corrected TEER for each example compound was compared to the average of the DMSO wells and expressed as a percent TEER of vehicle control. Intracellular pH was measured in human ileum stem cells grown as monolayers on 96 well Transwell plates cells incubated with 10 μM of pH sensitive dye BCECF-AM (Life Technologies, cat# B1150) for 30 min at 37° C., 5% CO2 in Na-containing buffer (120 mM NaCl, 10 mM HEPES, 10 mM glucose, 5 mM KCl, 2 mM CaCl2, 1 mM MgCl2, pH 7.4). After 30 min the dye was aspirated and cells were washed twice with Na-containing buffer.
Fluorescent readings were acquired every 5 minutes for a period of 30 minutes on a Flexstation microplate reader at dual excitation wavelengths of 495 nm and 439 nm and emission wavelength of 538 nm (Molecular Devices). The fluorescent ratio for pH indication was calculated from ratio of the two excitation wavelengths (495/439 nm).

[2] = system: human ileum stem cells grown as monolayers; experiment: Intracellular pH (BCECF-AM) in human ileum monolayers; format: cell-based; settings: human ileum monolayer
NHE3 = molecular target: T1, NHE3 (Homo sapiens, UniProt P48764); experiment: NHE3 activity in enterocytes by intracellular pH recovery following acid loading; format: cell-based
T1 construct: the increase in NHE3 expression after differentiation; endogenous in cells; host or cells: enterocytes (differentiated human ileum organoid monolayer cultures)
T1 sequence (P48764 26-834): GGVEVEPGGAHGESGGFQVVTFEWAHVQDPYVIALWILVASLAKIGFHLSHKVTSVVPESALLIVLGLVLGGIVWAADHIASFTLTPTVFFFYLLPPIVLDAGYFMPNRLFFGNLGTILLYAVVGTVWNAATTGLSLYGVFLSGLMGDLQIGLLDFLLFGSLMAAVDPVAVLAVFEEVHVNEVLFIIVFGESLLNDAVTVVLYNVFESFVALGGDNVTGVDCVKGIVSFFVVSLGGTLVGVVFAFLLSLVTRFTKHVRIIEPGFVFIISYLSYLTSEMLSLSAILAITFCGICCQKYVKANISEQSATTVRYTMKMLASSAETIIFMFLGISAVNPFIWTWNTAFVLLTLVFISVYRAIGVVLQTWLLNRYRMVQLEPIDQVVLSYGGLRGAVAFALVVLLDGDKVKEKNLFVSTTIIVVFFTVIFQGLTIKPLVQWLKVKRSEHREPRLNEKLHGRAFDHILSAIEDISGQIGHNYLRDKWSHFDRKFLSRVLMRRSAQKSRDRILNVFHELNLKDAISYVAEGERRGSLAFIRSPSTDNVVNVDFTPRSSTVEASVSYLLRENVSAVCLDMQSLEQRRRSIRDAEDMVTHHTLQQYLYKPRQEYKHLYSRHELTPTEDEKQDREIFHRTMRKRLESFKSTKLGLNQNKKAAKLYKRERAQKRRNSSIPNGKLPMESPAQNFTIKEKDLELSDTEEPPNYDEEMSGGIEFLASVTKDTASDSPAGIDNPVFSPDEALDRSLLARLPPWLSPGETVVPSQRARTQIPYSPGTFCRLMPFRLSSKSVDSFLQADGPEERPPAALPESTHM
Experimental: Known NHE3 inhibitor Tenapanor, as well as non NHE3 inhibitors nigericin, BAM15, FCCP, or DMSO control, were diluted into Na-containing buffer and added to the apical compartment of the Transwell. Fluorescent readings were acquired every 5 minutes for a period of 30 minutes on a Flexstation microplate reader at dual excitation wavelengths of 495 nm and 439 nm and emission wavelength of 538 nm (Molecular Devices). The fluorescent ratio for pH indication was calculated from ratio of the two excitation wavelengths (495/439 nm).

mice = experiment: Gastrointestinal transit (Evans Blue dye front) in opioid induced constipation model; format: in vivo; settings: oral vehicle, subcutaneous loperamide (0.3 to 6 mg/kg); 30-minute period; vehicle/vehicle approximately 70%
Experimental: Gastrointestinal transit is measured in mice treated with the peripherally acting μ-opioid agonist loperamide to assess the ability of selected example compounds to restore gastrointestinal motility in a model of opioid induced constipation. Approximately eight-week old, female, CD 1 rats are purchased from Envigo (Livermore, Calif.), are housed 4 per cage and acclimated for at least 48 hours before study initiation. Animals are fed standard laboratory rodent chow Harlan Teklad Global 2018 (Maddison, Wis.). […] 30 minutes later, animals are euthanized by carbon dioxide inhalation, and the length from the pylorus to cecum (whole length of the small intestine) and the length from the pylorus to the Evans Blue dye front are measured and recorded. For an individual animal, the length travelled by the Evans Blue dye front is divided by the length of the whole small intestine, measured from the pylorus to the cecum, and multiplied by 100, to provide the distance of the small intestine travelled by the dye as a percentage. […] The effect of example compounds on GIT motility in the presence of loperamide is calculated as the ability to restore vehicle/vehicle transit distance from the vehicle/loperamide transit, expressed as a percentage.

Row | Molecule | TEER compared with control [1] | intracellular pH compared with control ([2]; 3 μM, vs DMSO (FIG. 1C)) | inhibition of NHE3 activity in enterocytes (NHE3) | also measured
1 | Fc1ccccc1Nc1nc2nonc2nc1Nc1ccccc1F [BAM15] | increased TEER compared with control | decrease intracellular pH | neither nigericin, BAM15 nor FCCP inhibited NHE3 activity | 
2 | CN(C)C(=O)C(CCN1CCC(O)(c2ccc(Cl)cc2)CC1)(c1ccccc1)c1ccccc1 [loperamide] |  |  |  | length of the small intestine travelled by Evans Blue dye front (mice): ~25%
3 | CO[C@@H]1C[C@@H](C[C@H]2CC[C@H](C)[C@H]([C@@H](C)C(=O)O)O2)O[C@]2(O[C@](C)([C@H]3CC[C@@](C)([C@@H]4O[C@@H]([C@H]5O[C@@](O)(CO)[C@H](C)C[C@@H]5C)C[C@@H]4C)O3)C[C@H]2C)[C@@H]1C [nigericin] |  |  | neither nigericin, BAM15 nor FCCP inhibited NHE3 activity | intracellular pH compared with control ([2]; apical dosing, vs DMSO (FIG. 1A)): reduced intracellular pH compared with control
4 | CN1Cc2c(Cl)cc(Cl)cc2[C@H](c2cccc(S(=O)(=O)NCCOCCOCCNC(=O)NCCCCNC(=O)NCCOCCOCCNS(=O)(=O)c3cccc([C@@H]4CN(C)Cc5c(Cl)cc(Cl)cc54)c3)c2)C1 [tenapanor] |  |  |  | TEER relative to control ([1]; apical dosing, vs DMSO (FIG. 1B)): increase in TEER relative to control
5 | FCCP | increased TEER compared with control | decrease intracellular pH |  | 
